According to US20170189504A1, “NOVEL PEPTIDES AND COMBINATION OF PEPTIDES FOR USE IN IMMUNOTHERAPY AGAINST VARIOUS CANCERS” (immatics biotechnologies GmbH, priority 2015, published 2017):

The substances below were run on HLA-A*02 (assay: MHC binding assay, UV-ligand exchange with β2m ELISA, HLA-A*02 (Table 20)). Conditions: binding to HLA-A*02 ranged by peptide exchange yield (UV-ligand exchange, β2m ELISA).
Set-up: species or system human
Text: Candidate peptides for T cell based therapies according to the present invention were further tested for their MHC binding capacity (affinity). The individual peptide-MHC complexes were produced by UV-ligand exchange, where a UV-sensitive peptide is cleaved upon UV-irradiation, and exchanged with the peptide of interest as analyzed. Only peptide candidates that can effectively bind and stabilize the peptide-receptive MHC molecules prevent dissociation of the MHC complexes. To determine the yield of the exchange reaction, an ELISA was performed based on the detection of the light chain ((β2m) of stabilized MHC complexes. The assay was performed as generally described in Rodenko et al. (Rodenko et al., 2006).
96 well MAXISorp plates (NUNC) were coated over night with 2 ug/ml streptavidin in PBS at room temperature, washed 4× and blocked for 1 h at 37° C. in 2% BSA containing blocking buffer. Refolded HLA-A*02:01/MLA-001 monomers served as standards, covering the range of 15-500 ng/ml. Peptide-MHC monomers of the UV-exchange reaction were diluted 100 fold in blocking buffer. Samples were incubated for 1 h at 37° C., washed four times, incubated with 2 ug/ml HRP conjugated anti-β2m for 1 h at 37° C., washed again and detected with TMB solution that is stopped with […]. Absorption was measured at 450 nm. Candidate peptides that show a high exchange yield (preferably higher than 50%, most preferred higher than 75%) are generally preferred for a generation and production of antibodies or fragments thereof, and/or T cell receptors or fragments thereof, as they show sufficient avidity to the MHC molecules and prevent dissociation of the MHC complexes.

Substance	Peptide exchange
54 (VLNPLITAV; listed as Homo sapiens) [compound 54]	+++ (50%-75% = +++)
85 (VLNDILVRA; listed as Homo sapiens) [compound 85]	+++ (50%-75% = +++)
110 (FLLGVSKEV; listed as Homo sapiens) [compound 110]	+++ (50%-75% = +++)
86 (SVDSHFQEV; listed as Homo sapiens) [compound 86]	++ (20%-49% = ++)
101 (ALADFMLSL; listed as Homo sapiens) [compound 101]	+++ (50%-75% = +++)
30 (AMIEEVFEA; listed as Homo sapiens) [compound 30]	++ (20%-49% = ++)
56 (FLHDEKEGIYI; listed as Homo sapiens) [compound 56]	+++ (50%-75% = +++)
94 (LLLPAVPVGA; listed as Homo sapiens) [compound 94]	+++ (50%-75% = +++)
21 (AIQDEIRSV; listed as Homo sapiens) [compound 21]	+++ (50%-75% = +++)
99 (YLLQSVNQLLL; listed as Homo sapiens) [compound 99]	++ (20%-49% = ++)
36 (SLADTNSLAVV; listed as Homo sapiens) [compound 36]	+++ (50%-75% = +++)
70 (LLLGDSALYL; listed as Homo sapiens) [compound 70]	+++ (50%-75% = +++)
83 (GQASYFYVA; listed as Homo sapiens) [compound 83]	++ (20%-49% = ++)
58 (YLLPLLPAL; listed as Homo sapiens) [compound 58]	+++ (50%-75% = +++)
115 (SLDPDTLPAV; listed as Homo sapiens) [compound 115]	++ (20%-49% = ++)
105 (ALLGTKILL; listed as Homo sapiens) [compound 105]	+++ (50%-75% = +++)
39 (HLLEGSVGV; listed as Homo sapiens) [compound 39]	+++ (50%-75% = +++)
126 (QMFQYFITV; listed as Homo sapiens) [compound 126]	++++ (≧75% = ++++)
81 (NALDKVLSV; listed as Homo sapiens) [compound 81]	+++ (50%-75% = +++)

Results, then the substance that gave them:

Peptide exchange	Substance
+++ (50%-75% = +++)	236 (STIAILNSV; listed as Homo sapiens) [compound 236]
++++ (≧75% = ++++)	153 (FISERVEVV; listed as Homo sapiens) [compound 153]
+++ (50%-75% = +++)	157 (TLTSLLAQA; listed as Homo sapiens) [compound 157]
+++ (50%-75% = +++)	134 (GLAVPTPSV; listed as Homo sapiens) [compound 134]
+++ (50%-75% = +++)	260 (ILLEKILSL; listed as Homo sapiens) [compound 260]
+++ (50%-75% = +++)	264 (KLFPQETLFL; listed as Homo sapiens) [compound 264]
++++ (≧75% = ++++)	147 (YLMDDTVEI; listed as Homo sapiens) [compound 147]
+++ (50%-75% = +++)	142 (ILVEGISTV; listed as Homo sapiens) [compound 142]
+++ (50%-75% = +++)	143 (ALLPELREV; listed as Homo sapiens) [compound 143]
+++ (50%-75% = +++)	237 (ALAPHLDDA; listed as Homo sapiens) [compound 237]
+++ (50%-75% = +++)	234 (LLSPHNPAL; listed as Homo sapiens) [compound 234]
++ (20%-49% = ++)	242 (WLYGEDHQI; listed as Homo sapiens) [compound 242]
++ (20%-49% = ++)	128 (TQSPATLSV; listed as Homo sapiens) [compound 128]
